Reference: US10947260B2, “Phosphinolactone derivatives and pharmaceutical uses thereof” (INSTITUT NATIONAL DE LA SANTE ET DE LA RECHERCHE MEDICALE …, priority 2016, dated 2021)

Test system: APPSwe mice
Assay: Biochemical analyses in hippocampus of APPSwe mice
Type: in vivo
Details: 1 mg/kg/j IP
Description: FIG. 12: Biochemical analyses of the effect of treatments with compound 3b (a) or 3c (b) in the hippocampus of APPSwe mice. Oxidative stress was measured via the level of peroxidation of membrane lipids at (a), or DCF fluorescence at (b). The expression levels of synaptophysin, Bax, IL1β and TNFα were measured using commercial Elisa kits. The values are given as % of the control group WT/V. N=6-8 per group. *p<0.05, **p<0.01 compared with group WT/V; #p<0.05, ##p<0.01 compared with group APPSwe/V; Student t-test.
After sacrifice, the hippocampus and brain cortex of the mice were dissected and frozen to −80° C. until use. The accumulation of reactive oxygen species was measured by fluorescence of 2′,7′-dichlorofluorescein (DCF) in the hippocampus of the mice ex vivo. DCF diacetate (0.5 μM) (Sigma-Aldrich) was added to SDS-soluble fractions of hippocampus extract. After 30 min at 37° C., DCF fluorescence was quantified (excitation at 485 nm, emission at 530 nm) in a Fluoroskan Ascent spectrofluorometer (Thermo Scientific, Waltham, USA), and normalized with the protein concentrations of the extracts.
Peroxidation of membrane lipids was measured using the cumene/xylenol method. The hippocampi were homogenized in methanol (1:10), centrifuged at 1 000 g for 5 min and the supernatant collected. Aliquots were added to a solution containing 1 mM FeSO4, 0.25 m H2SO4, 1 mM xylenol orange and incubated for 30 min at ambient temperature. Absorbance was measured at 580 nm (A5801), then 10 μl of 1 mM cumene hydroperoxide (CHP) was added and the sample incubated 30 min at ambient temperature. Absorbance was measured at 580 nm (A5802). Lipid peroxidation level was determined as CHP equivalents: CHP eq.=A5801/A5802×[CHP (nmol)]×dilution, and calculated in CHP eq. per tissue weight expressed as % of the control group.
Various biochemical parameters were analysed in the hippocampus of APPSwe mice after treatments with 3b, 2 mg/kg/j IP, or 3c, 1 mg/kg/j IP (FIG. 12).

CC1(C)COP(=O)(c2ccc(Cl)cc2)C(C)(C)N1 (racemic) [Compound 3c, (±)-2-(4-Chlorophenyl)-2-oxo-3,3,5,5-tetramethyl-[1,4,2]-oxazaphosphinane]
IL1β level, hippocampus: not
expression of Bax, hippocampus: caused a decrease
oxidative stress (DCF fluorescence), hippocampus: not
synaptophysin level, hippocampus: not
